Data on eight compounds can be found in US9493468B2, “Antifungal 5,6-dihydro-4H-pyrrolo[1,2-a][1,4]benzo-diazepines and 6H-pyrrolo[1,2-a][1,4]benzodiazepines substituted with heterocyclic derivatives” (Janssen Pharmaceutica NV, priority 2011, dated 2016).

One series deals with Sporothrix schenkii. The series can be described thus: Antifungal activity in vitro, resazurin growth inhibition: Sporothrix schenkii (B62482). It counts as cell-based. The conditions noted are these: for IC50: read-out: Inf. A: Sporothrix schenkii B62482, pIC50 (converted). In outline: (§1)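 Compound dilutions, with 64 μM as the highest in-test level, are spotted onto plates, then an inoculum of 10^3 cfu in RPMI-1640 plus 2% glucose (MOPS, pH 7.0±0.1) is added. Plates are incubated at species-dependent time and temperature, up to a week or more at 27° C. for dermatophytes.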
In general terms: Alamar Blue is a resazurin reagent that responds to reducing activity.

Series [1] has as its system Trichophyton mentagrophytes. Description: Antifungal activity in vitro, resazurin growth inhibition: Trichophyton mentagrophytes (B70554). The conditions noted are these: for IC50: read-out: Inf. G: Trichophyton mentagrophytes B70554, pIC50 (converted). Type of series: cell-based. In outline:
(§2)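 Fungi (10^3 cfu/well) grown in RPMI-1640 with L-glutamine, 2% glucose, MOPS pH 7.0, against 2- or 4-fold compound dilutions up to 64 μM. Dermatophytes incubated one week or more at 27° C. Growth inhibition read fluorimetrically (λex 550, λem 590 nm) after resazurin addition and further incubation.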

Another series deals with Scedosporium apiospermum. Description: Antifungal activity in vitro, resazurin growth inhibition: Scedosporium apiospermum (IHEM3817). Type of series: cell-based. The conditions noted are these: for IC50: read-out: Inf. H: Scedosporium apiospermum IHEM3817, pIC50 (converted). In outline:
as §1

A further series concerns Rhizopus oryzae. The series can be described thus: Antifungal activity in vitro, resazurin growth inhibition: Rhizopus oryzae (IHEM5223). Type of series: cell-based. The note with it: for IC50: Rhizopus arrhizus, read-out: Inf. J: Rhizopus oryzae IHEM5223, pIC50 (converted). In outline: as §1
Another series concerns Candida parapsilosis. Description: Antifungal activity in vitro, resazurin growth inhibition: Candida parapsilosis (B66126). It counts as cell-based. The conditions noted are these: for IC50: Lodderomyces parapsilosis, read-out: Inf. D: Candida parapsilosis B66126, pIC50 (converted). The procedure, abridged:
as §1

A further series relates to Trichophyton rubrum. Description: Antifungal activity in vitro, resazurin growth inhibition: Trichophyton rubrum (B68183). The conditions noted are these: for IC50: read-out: Inf. C: Trichophyton rubrum B68183, pIC50 (converted). It counts as cell-based. The procedure, abridged: as §2
A further series concerns Microsporum canis. The series can be described thus: Antifungal activity in vitro, resazurin growth inhibition: Microsporum canis (B68128). It counts as cell-based. The conditions noted are these: for IC50: read-out: Inf. B: Microsporum canis B68128, pIC50 (converted). In outline: as §2
Another series has as its system Cryptococcus neoformans. Description: Antifungal activity in vitro, resazurin growth inhibition: Cryptococcus neoformans (B66663). It counts as cell-based. The conditions noted are these: for IC50: read-out: Inf. F: Cryptococcus neoformans B66663, pIC50 (converted). In outline: as §1
In a further series the test system is Rhizomucor miehei. The series can be described thus: Antifungal activity in vitro, resazurin growth inhibition: Rhizomucor miehei (IHEM13391). It counts as cell-based. The conditions noted are these: for IC50: read-out: Inf. K: Rhizomucor miehei IHEM13391, pIC50 (converted). The procedure, abridged: as §1
Another series relates to Scedosporium prolificans. The series can be described thus: Antifungal activity in vitro, resazurin growth inhibition: Scedosporium prolificans (IHEM21157). It counts as cell-based. The note with it: for IC50: Lomentospora prolificans, read-out: Inf. I: Scedosporium prolificans IHEM21157, pIC50 (converted). In outline: as §1
The test system of another series is Aspergillus fumigatus. The series can be described thus: Antifungal activity in vitro, resazurin growth inhibition: Aspergillus fumigatus (B42928). It counts as cell-based. The conditions noted are these: for IC50: read-out: Inf. E: Aspergillus fumigatus B42928, pIC50 (converted). The procedure, abridged:
as §1

A word on the melting point: it is the temperature, or range, at which the solid turns liquid.

As to `Cc1cccc2cc(C3=NCc4c(Cl)cccc4-n4cccc43)oc12` [Compound 7], the melting point lay within 175.2 to 177.3 °C. The IC50 with Sporothrix schenkii was 2750 nM. For the same compound, the IC50 in [1] is 245 nM. The IC50 in the series on Scedosporium apiospermum is 513 nM. For the same compound, the IC50 with Rhizopus oryzae was above 64600 nM. In addition, the IC50 with Candida parapsilosis is 9770 nM. The IC50 with Trichophyton rubrum is 64.6 nM. For the same compound, the IC50 with Microsporum canis is 174 nM. For the same compound, in the series with Cryptococcus neoformans, the IC50 was 759 nM. In the series on Rhizomucor miehei, the IC50 was 7080 nM. Besides, the IC50 with Scedosporium prolificans is 214 nM. Also, the IC50 with Aspergillus fumigatus is 302 nM.
Take `Cc1cccc2c1CNC(c1cc3ccccc3s1)c1cccn1-2.Cl` (stereo not drawn) [Compound 1]: the melting point lay within 242.4 to 247.7 °C. Also, the IC50 in the series on Sporothrix schenkii is 3020 nM. Moreover, the IC50 in series [1] is 204 nM. For the same compound, the IC50 with Scedosporium apiospermum was above 64600 nM. The IC50 with Rhizopus oryzae is above 64600 nM. In addition, the IC50 in the series with Candida parapsilosis was 45700 nM. Further, the IC50 in the series on Trichophyton rubrum was 67.6 nM. Also, the IC50 in the series with Microsporum canis is 447 nM. Moreover, the IC50 in the series on Cryptococcus neoformans was above 64600 nM. The IC50 in the series on Rhizomucor miehei is above 64600 nM. For the same compound, the IC50 in the series on Scedosporium prolificans is 1820 nM. Besides, the IC50 in the series on Aspergillus fumigatus was 2000 nM.
In turn, `Clc1cccc2c1CN=C(c1ccc3occc3c1)c1cccn1-2` [Compound 8] showed a melting point of 163.9 to 164.1 °C. In addition, the IC50 in the series on Sporothrix schenkii was 14100 nM. The IC50 in series [1] was 178 nM. Moreover, the IC50 in the series with Scedosporium apiospermum is 10200 nM. The IC50 with Rhizopus oryzae is above 15800 nM. Further, in the series with Candida parapsilosis, the IC50 was 794 nM. In addition, the IC50 with Trichophyton rubrum was 38.9 nM. In addition, the IC50 in the series with Microsporum canis is 427 nM. The IC50 with Cryptococcus neoformans is 4270 nM. For the same compound, in the series on Rhizomucor miehei, the IC50 is 44700 nM. Moreover, the IC50 in the series with Scedosporium prolificans is 437 nM. The IC50 in the series with Aspergillus fumigatus is 490 nM.
Turning to `Cc1cccc2c1CN=C(c1cc3cc(Cl)ccc3o1)c1cccn1-2` [Compound 122], the “Inf. A: Sporothrix schenkii B62482, pIC50” value with Sporothrix schenkii is reported as 5.42. In addition, the “Inf. G: Trichophyton mentagrophytes B70554, pIC50” value (from here on “Inf. G”) in [1] was found to be 5.55. The “Inf. H: Scedosporium apiospermum IHEM3817, pIC50” value (“Inf. H” for short) in the series with Scedosporium apiospermum is recorded as below 4.19. In addition, in the series with Rhizopus oryzae, the “Inf. J: Rhizopus oryzae IHEM5223, pIC50” value is below 4.19. Besides, in the series with Candida parapsilosis, the “Inf. D: Candida parapsilosis B66126, pIC50” value (shortened to “Inf. D”) was below 4.19. The “Inf. C: Trichophyton rubrum B68183, pIC50” value (“Inf. C” below) with Trichophyton rubrum came out at 6.86. The “Inf. B: Microsporum canis B68128, pIC50” value in the series on Microsporum canis is given as 6.90. For the same compound, the “Inf. F: Cryptococcus neoformans B66663, pIC50” value (“Inf. F” below) in the series on Cryptococcus neoformans worked out at 4.69. Besides, in the series on Rhizomucor miehei, the “Inf. K: Rhizomucor miehei IHEM13391, pIC50” value (“Inf. K” below) is recorded as below 4.19. In the series on Scedosporium prolificans, the “Inf. I: Scedosporium prolificans IHEM21157, pIC50” value (from here on “Inf. I”) was 4.62. For the same compound, the “Inf. E: Aspergillus fumigatus B42928, pIC50” value (“Inf. E” for short) in the series with Aspergillus fumigatus came to 5.38.
As to `Clc1cccc2c1-n1cccc1C(c1ccc3sccc3c1)=NC2` [Compound 174], the “Inf. A: Sporothrix schenkii B62482, pIC50” value with Sporothrix schenkii came to 6.06. In series [1], the “Inf. G” value is on record as 6.80. In addition, the “Inf. H” value with Scedosporium apiospermum is below 4.19. In the series with Rhizopus oryzae, the “Inf. J: Rhizopus oryzae IHEM5223, pIC50” value is reported as below 4.19. In addition, the “Inf. D” value in the series on Candida parapsilosis is listed as below 4.19. Further, in the series with Trichophyton rubrum, the “Inf. C” value amounted to 6.87. The “Inf. B: Microsporum canis B68128, pIC50” value in the series on Microsporum canis was found to be 6.54. Moreover, in the series on Cryptococcus neoformans, the “Inf. F” value was found to be 6.43. For the same compound, the “Inf. K” value in the series with Rhizomucor miehei is reported as below 4.19. For the same compound, in the series on Scedosporium prolificans, the “Inf. I” value came out at 4.80. The “Inf. E” value in the series on Aspergillus fumigatus is on record as 6.30.
Take `FC(F)(F)c1cc(C2=NCc3c(Cl)cccc3-n3cccc32)ccn1` [Compound 3]: the melting point lay in the range of 158.2 to 160.6 °C. Moreover, in the series with Sporothrix schenkii, the IC50 was above 64600 nM. Moreover, the IC50 in series [1] was 229 nM. In addition, the IC50 in the series on Scedosporium apiospermum was 2140 nM. Also, the IC50 with Rhizopus oryzae is above 64600 nM. Further, the IC50 with Candida parapsilosis is above 64600 nM. The IC50 in the series with Trichophyton rubrum was 42.7 nM. For the same compound, the IC50 in the series on Microsporum canis is 126 nM. In the series with Cryptococcus neoformans, the IC50 is above 64600 nM. In addition, in the series with Rhizomucor miehei, the IC50 was above 64600 nM. Further, the IC50 in the series with Scedosporium prolificans was 3020 nM. The IC50 with Aspergillus fumigatus is 1350 nM.
With `Cc1ccc2oc(C3=NCc4c(Cl)cccc4-n4cccc43)cc2c1` [Compound 134], the “Inf. A: Sporothrix schenkii B62482, pIC50” value with Sporothrix schenkii was 4.50. Also, in [1], the “Inf. G” value is reported as 6.66. Also, the “Inf. H” value in the series with Scedosporium apiospermum is listed as below 4.19. The “Inf. J: Rhizopus oryzae IHEM5223, pIC50” value with Rhizopus oryzae is given as below 4.19. Also, the “Inf. D” value with Candida parapsilosis is recorded as 4.54. The “Inf. C” value with Trichophyton rubrum came out at 7.16. Moreover, in the series with Microsporum canis, the “Inf. B: Microsporum canis B68128, pIC50” value amounted to 6.68. Moreover, the “Inf. F” value in the series on Cryptococcus neoformans was below 4.19. Moreover, the “Inf. K” value in the series with Rhizomucor miehei was below 4.19. Besides, the “Inf. I” value with Scedosporium prolificans is recorded as 6.48. Moreover, in the series with Aspergillus fumigatus, the “Inf. E” value came to 5.66.
`Clc1cccc2c1-n1cccc1C(c1cc3ccccc3o1)=NC2` [Compound 5]: the melting point is 159.9 to 160.8 °C. Besides, in the series with Sporothrix schenkii, the IC50 was 661 nM. For the same compound, the IC50 in series [1] is 107 nM. The IC50 with Scedosporium apiospermum was 6030 nM. Also, the IC50 in the series with Rhizopus oryzae was above 64600 nM. Besides, the IC50 with Candida parapsilosis was above 64600 nM. For the same compound, the IC50 in the series on Trichophyton rubrum is 69.2 nM. Moreover, the IC50 in the series on Microsporum canis is 316 nM. Besides, in the series with Cryptococcus neoformans, the IC50 was 3550 nM. In the series on Rhizomucor miehei, the IC50 was 7940 nM. In addition, the IC50 with Scedosporium prolificans was 309 nM. Moreover, the IC50 in the series on Aspergillus fumigatus is 2690 nM.
